Test system: PMA-induced release of endogenous IL-6R from human U-937 cells
Test: ELISA-based IL-6R release assay, PMA-induced, U-937 cells
Format: cell-based
Details: U-937, 1 h, PMA 62.5 ng/ml, Batimastat at 10 μM
Experimental: In brief, on day 1, Nunc black MaxiSorp® 96-well plates (Thermo Fisher Scientific, USA) were coated overnight with 100 μl per well of mouse anti-human IL-6R capture antibody (provided as part of the DuoSet ELISA kit) at 2 μg/ml TBS at 4° C. On day 2, the capture antibody solution was removed and MaxiSorp® plates were blocked with 300 μl per well of TBS, 1% BSA at room temperature for 1-2 hours. Meanwhile, 80,000 U-937 (European Collection of Authenticated Cell Cultures, UK) cells in 80 μl of normal growth medium were seeded in each well of Greiner CELLSTAR V-bottom 96-well plates (Thermo Fisher Scientific, USA) and pre-incubated with 20 μl per well of standard growth medium supplemented with Batimastat (BB94, Abcam, UK) at 50 μM as positive control (for a final concentration of 10 μM in the resulting 100 μl sample volume), mouse IgG antibody (Thermo Fisher Scientific, USA) at 5 μg/ml as isotype control (for a final […]) at 37° C., 5% CO2 for 30 minutes. In case of stimulation controls, 20 μl of standard growth medium without test articles were added. […] Using an infinite M1000 (Tecan Group, Switzerland) microplate reader, the fluorescence of each well was collected at an excitation wavelength of 435 nm and an emission wavelength of 555 nm. […]

**Q.** With CNC(=O)[C@H](Cc1ccccc1)NC(=O)[C@H](CC(C)C)[C@H](CSc1cccs1)C(=O)NO [Batimastat] as the compound, how does the inhibition at 10 µM (murine (m) and chimeric (ch) antibodies and IgG at 3 μg/ml) read?
**A.** The inhibition at 10 µM was 91.6%.

**Q.** What about the inhibition at 10 µM (recombinant murine antibodies and IgG at 1 μg/ml) of the same compound?
**A.** The inhibition at 10 µM was 86.6%.

Source: patent US20240287172A1, “PROTEIN BINDERS TO IRHOM2 EPITOPES” (SCIRHOM GMBH, priority 2019, published 2024)
